This note sets out measurements from US20070049588A1, “ATM INHIBITOR” (priority 2005, published 2007).

The nature of data set [1]: Oral bioavailability in mice. The following applies: mouse, plasma, 10 mg/kg oral vs intravenous, AUC ratio. It counts as in vivo. Here is the method:
In order to assess the oral bioavailability of compounds (Ia)-(IV), the compounds were dissolved to 5 mg/ml in an aqueous formulation which was then dosed orally and intravenously at 10 mg/kg to discrete groups of mice. For the intravenously dosed animals, blood samples were taken (three mice per time point) at 3, 5, 15, 30, 60, 120, 240 and 360 minutes post-dose. For the orally dosed animals, blood samples were taken (three mice per time point) at 5, 15, 30, 60, 120, 240 and 360 minutes post-dose. The plasma concentration of each compound at all time points, for both dose routes, was determined by HPLC-MS/MS analysis. The details of the HPLC-MS/MS method are as follows.
Sample was extracted for analysis by homogenisation of tissue, if required, vortex mixing and then centrifugation to produce a compound-containing supernatant that can be assayed by HPLC-MS/MS. Quantitation was achieved by comparison to a serial dilution of a known amount of parent compound. The chromatographic and MS conditions used are given below.
MS conditions were determined by infusing compound dissolved in 50:50 acetonitrile:formic acid (0.01%).
Total exposure as indicated by area under the curve (AUC) was calculated. By definition, intravenous delivery results in 100% bioavailability and the comparative bioavailability obtained through oral delivery is calculated by: [formula]

Data set [2] is described as follows: Tissue pharmacokinetics, plasma and tumour concentrations. It counts as in vivo. The note with it: mouse, ip, mice, 50 mg/kg i.p., mean; for concentration at 1 h: 1 hr post-dose; for concentration at 4 h: 4 hr post-dose. Here is the method:
In order to assess tissue pharmacokinetics, a single intraperitoneal (i.p.) dose of 50 mg/kg of each compound was administered to discrete groups of mice. Blood and tumour samples were taken (three mice per time point) at 1 and 4 hours post-dose. The concentration of each compound in both matrices at both time points was determined by HPLC-MS/MS analysis using the method described above for Example 6. The mean concentrations found are presented below.

A short description of data set [3]: Maximum single tolerable intravenous dose in rats. The note with it: both sexes, rat, in vivo, highest dose without clinical signs in 4 animals, read-out: Rat MTD (i.v.). Here is the method: (§1) The maximum single tolerable intravenous dose which could be administered to rats and mice was determined. Escalating doses of each compound were given to discrete, naive pairs of animals (1 male and 1 female) until a dose that elicited clinical signs, was reached. Then for each compound, two further animals were then treated with the highest dose that had not produced any clinical signs. […]

A short description of data set [4]: Maximum single tolerable intravenous dose in mice. The following applies: both sexes, mouse, in vivo, highest dose without clinical signs in 4 animals, read-out: Mouse MTD (i.v.). Here is the method: as §1
A short description of data set [5]: Clonogenic survival assays with chemotherapeutics. The class given is cell-based. The note with it: in vitro clonogenic survival assays.
The next data set concerns HIV. As to the kind of experiment: HIV-based LUCIA assay, repression of retroviral infection. The following applies: Human immunodeficiency virus 1. The class given is cell-based. The procedure:
The ability of compound (Ia) to repress retroviral infections was assessed using an HIV-based LUCIA assay. The LUCIA assay was carried out as described in WO 03/070726 (see pages 125-126 therein), which is incorporated herein by reference.

Setting [6] is: plasma, read-out: Plasma concentration.
Where [7] appears, read: tumour, read-out: Tumour concentration.

Where two headings read alike, the source gives them in different places. Bounds are passed on as bounds.

What is called bioavailability is dose-corrected exposure relative to a reference, in per cent. What is called MTD is the largest dose that counted as tolerated. Turning to `CN1CCN(CCC(=O)Nc2ccc3c(c2)Cc2cccc(-c4cc(=O)cc(N5CCOCC5)o4)c2S3)CC1` [Compound (II)], the bioavailability in data set [1] was found to be 0%. Further, the concentration at 1 h amounted to 3030 ng/mL in data set [2] (setting [6]) and 2810 ng/g in data set [2] (setting [7]). Besides, the figures for the concentration at 4 h in data set [2] (setting [6]) and in data set [2] (setting [7]) were 137 ng/mL and 1060 ng/g, respectively. The MTD in data set [3] is 40 mg/kg; in data set [4], below 40 mg/kg.

In the case of `CN1CCN(CCC(=O)Nc2ccc3c(c2)Sc2cccc(-c4cc(=O)cc(N5CCOCC5)o4)c2S3)CC1` [Compound (III)], in data set [1], the bioavailability worked out at 0%. In addition, the concentration at 1 h in data set [2] (setting [6]) was 2030 ng/mL; in data set [2] (setting [7]), 1730 ng/g. Besides, the concentration at 4 h in data set [2] (setting [6]) amounted to 626 ng/mL; in data set [2] (setting [7]), 2190 ng/g. The results for the MTD in data set [3] and in data set [4] were 75 mg/kg and below 40 mg/kg, respectively.

With `CC(C)N1CCN(CCC(=O)Nc2ccc3c(c2)Sc2cccc(-c4cc(=O)cc(N5CCOCC5)o4)c2S3)CC1` [Compound (IV)], in data set [1], the bioavailability turned out to be 0%. In data set [2] (setting [6]), the concentration at 1 h came to 1920 ng/mL and the concentration at 4 h is 383 ng/mL. Moreover, in data set [2] (setting [7]), the concentration at 1 h was found to be 899 ng/g and the concentration at 4 h came out at 1090 ng/g. Besides, in data set [4], the maximal tolerated dose (MTD) is below 40 mg/kg.

As usually defined, the IC50 is the point on the concentration scale where inhibition reaches its midpoint. On to `C[C@@H]1CN(CC(=O)Nc2ccc3c(c2)Cc2cccc(-c4cc(=O)cc(N5CCOCC5)o4)c2S3)C[C@H](C)O1` [Compound (Ia), 2-((2R,6S)-2,6-Dimethyl-morpholin-4-yl)-N-[5-(6-morpholin-4-yl-4-oxo-4H-pyran-2-yl)-9H-thioxanthen-2-yl]-acetamide], for which the “Potentiation of cytotoxic effects of etoposide, camptothecin and doxorubicin” value in data set [5] was “potentiate the cytotoxic effects”. Moreover, the IC50 with HIV was determined as 1300 nM. In addition, the bioavailability in data set [1] came to 37%. Further, the concentration at 1 h in data set [2] (setting [6]) came out at 31800 ng/mL; in data set [2] (setting [7]), 19700 ng/g. Besides, the values for the concentration at 4 h in data set [2] (setting [6]) and in data set [2] (setting [7]) were 5960 ng/mL and 4140 ng/g, respectively. The values for the MTD in data set [3] and in data set [4] were above 100 mg/kg and 75 mg/kg, respectively.
